Experimental data published in patent US6548715B1, “Structural analogues of vitamin D” (Laboratoire Theramex S.A., priority 1993, dated 2003).

What was measured:
[1] = target: T1, human DBP (vitamin D binding protein) (Homo sapiens, UniProt P02774); assay: Relative affinity for purified human vitamin D-binding protein (hDBP); details: % of the activity of 1α,25-(OH)2D3 at 50% of its activity (B50)
T1 sequence (P02774 17-474): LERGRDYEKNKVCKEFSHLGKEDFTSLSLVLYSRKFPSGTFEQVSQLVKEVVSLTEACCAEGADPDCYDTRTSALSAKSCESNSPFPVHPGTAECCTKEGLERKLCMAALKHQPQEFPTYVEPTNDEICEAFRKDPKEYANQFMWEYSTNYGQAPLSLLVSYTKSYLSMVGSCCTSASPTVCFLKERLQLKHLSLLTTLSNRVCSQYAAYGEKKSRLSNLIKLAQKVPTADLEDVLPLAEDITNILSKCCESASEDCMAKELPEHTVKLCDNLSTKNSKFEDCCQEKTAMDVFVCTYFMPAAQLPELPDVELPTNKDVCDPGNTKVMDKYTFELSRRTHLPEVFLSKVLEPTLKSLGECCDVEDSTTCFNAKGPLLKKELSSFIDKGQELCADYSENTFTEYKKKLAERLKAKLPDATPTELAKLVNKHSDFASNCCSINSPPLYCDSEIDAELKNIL

HL-60 cells = assay: HL-60 cell differentiation (NBT reduction); assay type: cell-based; details: % of the activity of 1α,25-(OH)2D3 at 50% of its activity (B50); human leukemia cells
Experimental: (§1) HL-60 cells were seeded at 1.2×10^5 cells/ml and 1α,25-(OH)2D3 or its anologs were added in ethanol (final concentration <0.2%) in RPMI 1640 medium supplemented with 10% heat-inactivated fetal calf serum (FCS) for 4 d at 37° C. Cells were then assayed for maturation by NBT reduction assay as described (22) using a hemacytometer, or for proliferation by cell counting and [^3H] thymidine incorporation. MG 63 cells, seeded at 5×10^3 cells/ml in 96 well flat bottomed culture plates (Falcon, Becton Dickinson, N.J.) in a volume of 0.2 ml of DMEM and 2% FCS, were incubated with 1α,25-(OH)2D3 or its analogues for 72 h. Osteocalcin was then measured in the culture medium using a homologous human osteocalcin RIA (39). Breast carcinoma cells (MCF-7 or GR) were grown in DMEM/nut.mix F-12 (HAM) medium supplemented with 10% FCS. Cells (5000/Well) were incubated during 24 h in 96 well tissue culture plates (Falcon 3072) followed by a 72 h incubation with/without 1α,25-(OH)2D3 or analogues. The cells were then incubated with [^3H]thymidine (1 μCi/well) for 4 h and harvested thereafter in NaOH (0.1 M) and the radioactivity counted. The protein content of the cells was measured by the Pierce BCA protein assay (Rockford, Ill.).

MG-63 cells = assay: MG-63 osteosarcoma cells, osteocalcin secretion; assay type: cell-based; details: % of the activity of 1α,25-(OH)2D3 at 50% of its activity (B50); human osteosarcoma cells
Experimental: as §1

[2] = tested on: human normal keratinocytes; assay: Human keratinocyte proliferation ([3H]thymidine incorporation); assay type: cell-based; details: % of the activity of 1α,25-(OH)2D3 at 50% of its activity (B50)
Experimental: to evaluate the effects on cell proliferation of non-malignant cells and especially to evaluate their potential for use for dermatological disorders, the new compounds were tested in cultures of human normal keratinocytes.
Human skin keratinocytes were isolated and cultured using a modification of the method of Kitano and Okada (38).
Briefly, the skin from biopsies of patients with breast tumors, was cutted into pieces measuring 3-5 mm and soaked overnight at 4° C. in a solution of dispase (20 Boehringer units/ml). The epidermis was peeled from the dermis, washed with calcium- and magnesium-free phosphate buffered saline and incubated and shaked in a 0.25% trypsin solution for 10 min at room temperature. The reaction was then stopped by addition of PBS containing 10% FCS. The cells were collected after centrifugation at 4° C. for 10 min at 800 rpm. After an additional washing with PBS, the pellet was suspended in culture medium into 25 cm^2 primaria flasks from Becton Dickinson. The keratinocytes were cultivated at 37° C. in an atmosphere of 5% CO2 in air. A few hours later, the medium was replaced by new one. The medium [Keratinocyte Medium from Gibco containing Epidermal Growth Factor (5 ng/ml), Bovine Pituitary Extract (35-50 μg/ml) and antibiotics] was renewed every other day until confluency.
Keratinocytes were cultured in 96-well plate and, after 24 hours, were treated with various concentrations of vitamin D analogues, followed by pulse labelling with 1 μCi of [^3H]thymidine for 3 hours. Cultures were washed 3 times with PBS and twice with 10% (v/v) ice cold trichloroacetic acid. Cells were solubilized with 1 M NaOH and radioactivity was counted in a scintillation counter.

[3] = tested on: vitamin D-deficient chicks; assay: Calcemic effect in vitamin D-deficient chicks (serum calcium); assay type: in vivo, chick; details: % of the activity of 1α,25-(OH)2D3 at 50% of its activity (B50); vitamin D-deficient chicks injected 10 consecutive days
Experimental: The antirachitic activity of the analogues was tested in 3 weeks old vitamin D-deficient chicks injected for 10 consecutive days with 1α,25-(OH)2D3 or its analogues (22,23). Serum calcium (by atomic absorptiometry) and osteocalcin (by specific RIA), duodenal calbindin D-28K (by RIA) and bone calcium content were measured. The hypercalcemic effect of the most interesting anologues was also tested in vitamin D-replete normal NMRI mice by daily sc injection of 1α,25-(OH)2D3, its analogues or the solvent for 7 consecutive days, using serum, bone and urinary calcium excretion and serum osteocalcin (by specific mouse RIA) as parameters (40).

vitamin D receptor = target: T2, vitamin D receptor (Sus scrofa, UniProt A3RGC1); details: % of the activity of 1α,25-(OH)2D3 at 50% of its activity (B50); 1α,25-(OH)2D3 assigned 100%
T2 sequence (A3RGC1 1-427): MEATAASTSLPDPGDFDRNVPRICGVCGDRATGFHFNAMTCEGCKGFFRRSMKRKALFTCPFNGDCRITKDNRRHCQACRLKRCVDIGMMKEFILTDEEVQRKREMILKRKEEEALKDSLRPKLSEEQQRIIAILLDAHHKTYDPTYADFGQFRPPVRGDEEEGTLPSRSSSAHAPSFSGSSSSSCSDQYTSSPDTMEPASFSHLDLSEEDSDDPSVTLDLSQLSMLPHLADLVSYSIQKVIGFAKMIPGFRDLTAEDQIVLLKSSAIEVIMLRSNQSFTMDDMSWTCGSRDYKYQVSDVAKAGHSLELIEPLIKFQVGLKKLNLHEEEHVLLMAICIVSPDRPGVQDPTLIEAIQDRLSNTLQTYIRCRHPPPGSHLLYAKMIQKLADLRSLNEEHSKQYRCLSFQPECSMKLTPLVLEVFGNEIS

MCF-7 cells = assay: MCF-7 breast cancer cell proliferation ([3H]thymidine incorporation); assay type: cell-based; details: % of the activity of 1α,25-(OH)2D3 at 50% of its activity (B50); human breast cancer cells
Experimental: as §1

Compound | Affinity for human DBP [1] [%] | Cell differentation/cell proliferation HL-60 (HL-60 cells) [%] | Cell differentation/cell proliferation MG-63 (MG-63 cells) [%] | Cell differentation/cell proliferation keratinocytes [2] [%] | Ca serum chick [3] [%] | Affinity for pig receptor (vitamin D receptor) [%] | Cell differentation/cell proliferation MCF-7 (MCF-7 cells) [%]
C=C1C(=CC=CCC2(C)CCC(CCCC(O)(CC)CC)C2(C)C)CC(O)CC1O (stereo not drawn) [Compound 16] | 0 | 12 | 10 | 30 | 0.2 | 15 | 
C=C1C(=CC=CCC2(C)CCC(OCCC(O)(CC)CC)C2(C)C)CC(O)CC1O (stereo not drawn) [Compound 18] | 0 | 10 |  | 35 | <0.1 | 4 | 40
C=C1C(=CC=CCC2(C)CCC(CCCCC(C)(C)O)C2(C)C)CC(O)CC1O (stereo not drawn) [Compound 19] | 50 | 10 | 30 |  |  | 13 | 
C=C1C(=CC=CCC2(C)CCC(CCCCC(O)(CC)CC)C2(C)C)CC(O)CC1O (stereo not drawn) [Compound 20] | 8 | 75 | 30 |  |  | 28 | 
C=C1/C(=C\C=C\[C@@H]2CC[C@](C)(CCCCC(O)(CC)CC)C2(C)C)C[C@@H](O)C[C@@H]1O [Compound 38] | 2 | 100 |  |  | 2 | 80 | 
CCC(O)(C=CC=CC(C)C1CCC2C(=CC=C3CC(O)CC(O)C3)CCCC21C)CC (stereo not drawn) [Compound 50] | 0 | 40 |  | 60 | 0.1 | 9 | 100
CC(CCCCC(C)(C)O)C1CCC2C(=CC=C3CC(O)CC(O)C3)CCCC21C (stereo not drawn) [Compound 54] | 1 | 30 | 10 |  | 0.4 | 20 | 
CCC(O)(CC)CCCCC(C)C1CCC2C(=CC=C3CC(O)CC(O)C3)CCCC21C (stereo not drawn) [Compound 55] | 0 | 65 | 3 |  | 0.3 | 30 | 
C=C1C(=CC=CC2CCCC(C(C)CCCC(C)(C)O)C2(C)C)CC(O)CC1O (stereo not drawn) [Compound 56] | 70 | 100 |  |  |  |  | 
